{"source": "patent US8623919B2", "about": "“Method of synthesizing S-allyl-cysteine analogues and their therapeutic application in treating myocardial infarction” (Fudan University, priority 2007, dated 2014)", "system": "CSE", "test": "Western blot of CSE protein in left ventricle", "format": "in vivo, SD rats", "conditions": "MI rats, 50 mg/Kg/day, p<0.01", "from_the_text": "Animals were assigned and prepared the same as in Example 7, and dosages of SPRC and SAC were used the same in this example as in Example 7."}
{"smiles": "C#CCSC[C@H](N)C(=O)O", "note": "[SPRC, S-propargyl-cysteine]", "values": [{"measurement": "CSE protein expression", "value": "up-regulated"}]}
